Blank lines part the entries; values can stand above or below the compound they belong to.
Legend:
[1] = NMR titration with neutral substrates in benzene-d6; format: binding; conditions: benzene-d6 at 298 K; 1 at ca. 4 × 10^−3 M
From the text: Substrate Binding in Solution. The binding of neutral molecules to calix[4]pyrrole in the solid state prompted the present inventors to quantify the binding affinities of calix[4]pyrrole to a number of hydrogenbinding neutral molecules. Table 6 illustrates the varying degrees of affinity to which calix[4]pyrrole binds to various hydrogen binding compounds.

[2] = 1H NMR titration in CD2Cl2; format: binding; conditions: for Stability Constants, Hydrogen sulfate: Table 4, 0.1 M salt added to 10 mM receptor
[3] = 1H NMR titration in CD2Cl2; format: binding; conditions: for Stability Constant, Dihydrogen phosphate: tetrabutylammonium salt 0.1M added to 10 mM receptor; for Stability Constant, Dibiphosphate: tetrabutylammonium salt 0.03 M added to 3 mM receptor; for Stability Constants, Dihydrogen phosphate: Table 4, 0.1 M salt added to 10 mM receptor, value of 28 estimated
[4] = 1H NMR titration in CD2Cl2; format: binding; conditions: tetrabutylammonium salt 0.1M added to 10 mM receptor
[5] = 1H NMR titration in CD2Cl2; format: binding; conditions: tetrabutylammonium salt 0.1M added to 10 mM receptor; remark: listed apart in the source
[6] = 1H NMR titration in CD2Cl2; conditions: for Stability Constant, Fluoride: CD2Cl2
[7] = 1H NMR titration in CD2Cl2; conditions: for Stability Constant, Chloride / Stability Constants, Chloride: CD2Cl2; for Stability Constants, Chloride: Table 4, tetrabutylammonium salt 0.1 M added to 10 mM receptor
[8] = Anion binding affinity compared with parent calix[4]pyrrole; conditions: 13 and 29 vs compound 2; 14 and 28 vs compound 1
From the text: These types of compounds are useful as HPLC column media since low affinity constants and fast complexation-decomplexation rates generally lead to efficient separation of substrates (see Example 10).
Receptors with an increased anion binding ability such as 14 are useful as anion sequestering agents (e.g., in removal of phosphate and nitrate pollutants from aqueous environments) (see Example 12) or as synthons in reactions to produce further modified calix[4]pyrroles. The present inventors envision this system will be useful as a precursor to a calix[m]pyridino[n]pyrrole or a calix[m]pyridine.
The attachment of electron-donating substituents (such as methoxy) to the β-position (carbon or C-rim of the calixpyrrole) decreases the stability constants of compound 13 relative to compound 2. However attachment of electron-withdrawing substituents (such as bromine) to the carbon-rim has increased the stability constants of compound 14 relative to compound 1.
This increased binding affinity towards anions was not observed for the Substituted amide substituted mesooctamethylcalix[4]pyrrole 28 when compared to the compound 1. A possible reason is that the carboxy ‘tail” is not long enough to swing around and contribute to the binding of the anion.

[9] = Stability under acidic conditions; format: physicochemical; conditions: for stability under conditions of acid catalysis at higher temperature: 64° C., within 24 h; for stability under conditions of acid catalysis identical to those of preparation: purified samples, 24 hours, ambient temperature
Experimental: An advantage of 44 is that in contrast to its simple all-hydrogen analogue 43 it is stable upon exposure to acidic aqueous environments (down to pH 3 or 4 for >24 hours). This makes this system particularly useful for anion recognition, binding, sensing, transport, and extraction applications described in Examples 4, 8, 10, 11, 12, and 15.
A further advantage of the calix[n]pyrroles is that they are stable at a wide range of temperatures, especially at neutral or basic conditions. Under acidic conditions and extreme high or low temperatures, the meso linkage may degrade. A particular attribute of the fluorinated calix[n]pyrroles 44, 46, and 48 is that they are very stable under acidic conditions.
This latter finding is consistent with compounds 46 and 48 being kinetically stable at ambient temperature but not at higher temperatures.

[10] = 1H and 19F NMR titration in acetonitrile-d3 (0.5% v/v D2O); format: binding; conditions: wet acetonitrile
From the text: ^1H and ^19F NMR Titrations. The receptor 44, as a 0.014 M acetonitrile-d3 (0.5% v/v D2O) solution, was titrated by addition of concentrated acetonitrile-d3 (0.5% v/v D2O) solutions of the anions in question (in the form of their tetrabutylammonium salts). In order to account for dilution effects, these anion solutions also contained receptor 44 at its initial concentration. The data were fit to a 1:1 binding profile according to the method of Wilcox (in Frontiers in Supramolecular Organic Chemistry and Photochemistry; Schneider, H.-J., Dürr, H., Eds.; VCH: Weinheim, 1991) using changes in both the NH and β-F pyrrolic resonances in the ^1H and ^19F NMR spectra, respectively, that were assigned to the portion of the total receptor concentration that was considered to be monomeric. Specifically, the change in the position of the peaks initially at 7.24 ppm (^1H NMR) and −177.03 ppm (^19F NMR) were followed. Integration of the two pyrrolic NH resonances (corresponding to calix[4]pyrroles that are “free” and bound to the next receptor molecule) made it possible to estimate the relative concentration of the monomeric fraction in the acetonitrile-d3 (0.5% v/v D2O) solutions being subject to analysis. This estimated monomeric receptor concentration was used to calculate the affinity constants. […] Estimated errors were <20%.
The presence of two different receptor forms in solution precluded the use of Job plots to analyze binding stoichiometries. […] This increased selectivity is summarized in terms of the ratio of the binding constants, R44/43. (Table 9). Separate from the issue of binding to the monomeric form, but complicating the analyses somewhat was the finding that the addition of phosphate and fluoride to wet acetonitrile solutions of 44 led to deaggregation.
^1H and ^19F NMR spectroscopic titrations. Receptor 46, as a 0.014 M acetonitrile-d3 (0.5% v/v D2O) solution, was titrated by addition of concentrated acetonitrile-d3 (0.5% v/v D2O) solutions of the anions in question (in the form of their tetrabutylammonium salts). In order to account for dilution effects, these anion solutions also contained receptor 46 at its initial concentration. The data were fit to a 1:1 binding profile according to the method of Wilcox (Wilcox, C. S. in Frontiers in Supramolecular Organic Chemistry and Photochemistry; Schneider, H.-J., Dürr, H., Eds.; VCH: Weinheim, 1991) using changes in both the NH and β-F pyrrolic resonances in the ^1H and ^19F NMR spectra, respectively.
The binding properties of 46 and 48 were studied.

[11] = Binding constant in wet acetonitrile
Experimental: Binding constants vary with the solvent used for the binding study. Note that the solvent used for the data of Table 2 of Example 10 was dichloromethane whereas the solvent used for the studies herein was acetonitrile. In addition, a binding constant of 12,300 M^−1 was determined for the binding of pyrophosphate to 44 in wet acetonitrile.

[12] = acetonitrile-d3 (0.5% v/v D2O) at 22° C.; Anzenbacher et al. 1999; cited from earlier work
[13] = acetonitrile-d3 (0.5% v/v D2O) at 22° C.; Anzenbacher et al. 1999; cited from earlier work; remark: listed apart in the source
[14] = acetonitrile-d3 (0.5% v/v D2O) at 22° C.; Anzenbacher et al. 1999; cited from earlier work; remark: listed apart in the source
[15] = acetonitrile-d3 (0.5% v/v D2O) at 22° C.; Anzenbacher et al. 1999; cited from earlier work; remark: listed apart in the source
[16] = tetrabutylammonium salt 0.1M added to 10 mM receptor
[17] = tetrabutylammonium fluoride trihydrate 0.1M added to 10 mM receptor
[18] = tetrabutylammonium salt 0.03 M added to 3 mM receptor, value of 14 estimated
[19] = tetrabutylammonium salt 0.03 M added to 3 mM receptor

Compound: CC1(C)c2ccc([nH]2)C(C)(C)c2ccc([nH]2)C(C)(C)c2ccc([nH]2)C(C)(C)c2ccc1[nH]2 [Compound 1, meso-octamethylcalix[4]pyrrole]
- Ka, 1,1,3,3tetramethylurea [1]: 2.2 ± 0.1 M^1
- Ka, 1,2dimethylimidazole [1]: 5.4 ± 0.3 M^1
- Ka, N,N-dimethylacetamide [1]: 9.0 ± 0.9 M^1
- Ka, N,N-dimethylformamide [1]: 11.3 ± 0.8 M^1
- Ka, N-formylglycine ethyl ester [1]: 13.3 ± 1.0 M^1
- Ka, acetone [1]: 2.2 ± 0.2 M^1
- Ka, benzyl alcohol [1]: 9.7 ± 0.7 M^1
- Ka, dimethyl sulfoxide [1]: 16.2 ± 1.1 M^1
- Ka, ethanol [1]: 10.7 ± 0.7 M^1
- Ka, isopropyl alcohol [1]: 7.0 ± 0.4 M^1
- Ka, methanol [1]: 12.7 ± 1.0 M^1
- Ka, secbutanol [1]: 6.2 ± 0.4 M^1
- Stability Constant, Hydrogen sulfate [2, 16]: <10 M⁻¹
- Stability Constant, Dihydrogen phosphate [3]: 97 (±3.9) M^−1
- Stability Constant, Iodide [4]: <10 M⁻¹
- Stability Constant, Bromide [5]: 10 (±0.5) M^−1
- Stability Constant, Fluoride [6, 17]: 17170 (±900) M^−1
- Stability Constant, Chloride [7, 16]: 350 (±5.5) M^−1

Compound: c1cc2[nH]c1C1(CCCCC1)c1ccc([nH]1)C1(CCCCC1)c1ccc([nH]1)C1(CCCCC1)c1ccc([nH]1)C21CCCCC1 [Compound 2, meso-Tetraspirocyclohexylcalix[4]pyrrole, reference compound]
- Stability Constant, Dihydrogen phosphate [3]: <10 M⁻¹
- Stability Constant, Fluoride [6, 17]: 3600 (±395) M^−1
- Stability Constant, Chloride [7, 16]: 117 (±4.0) M^−1

Compound: COc1c2[nH]c(c1OC)C1(CCCCC1)c1[nH]c(c(OC)c1OC)C1(CCCCC1)c1[nH]c(c(OC)c1OC)C1(CCCCC1)c1[nH]c(c(OC)c1OC)C21CCCCC1 [Compound 13, β-Octamethoxy-meso-tetraspirocyclohexylcalix[4]pyrrole]
- Stability Constant, Dibiphosphate [3]: 6.5 (±0.4) × 10^2 M^−1
- Stability Constant, Fluoride [6, 18]: 1.7 (±0.2) × 10^2 M^−1
- Stability Constant, Chloride [7, 19]: <10 M⁻¹
- anion binding affinity relative to parent calix[4]pyrrole [8]: decreased

Compound: meso-octamethylcalix[4]pyrrole [Compound 1]
- Affinity constant, H2PO4^− [12]: 1 300 mol^−1
- Affinity constant, DMSO-d6 [13]: <5^c mol^−1
- Affinity constant, Cl^− [14]: 5 000 mol^−1
- Affinity constant, F^− [15]: >10 000 mol^−1

Compound: meso-tetramethylcalix[4]pyrrole-p-tert-butylcalix[4]arene pseudo dimer [Compound 15]
- changes in the NMR spectrum on addition of tetrabutylammonium fluoride ([6]; dichloromethane-d2, 10.0 equiv.): no changes

Compound: β-diester-meso-octamethylcalix[4]pyrrole [Compound 11]
- interaction with fluoride anion in solution [6]: interact
- interaction with chloride anion in solution [7]: interact

Compound: β-monoester-meso-octamethylcalix[4]pyrrole [Compound 10]
- Stability Constant, Fluoride [6, 18]: 1.1 (±0.2) × 10^3 M^−1
- Stability Constant, Chloride [7, 19]: 47 (±1) M^−1

Results, then the compound that gave them:

- Stability Constant, Dibiphosphate [3]: <10 M⁻¹
- Stability Constant, Fluoride [6, 18]: 2.7 (±0.4) × 10^4b M^−1
- Stability Constant, Chloride [7, 19]: 4.3 (±0.6) × 10^3 M^−1
- anion binding affinity relative to parent calix[4]pyrrole [8]: increased
Compound: CC1(C)c2[nH]c(c(Br)c2Br)C(C)(C)c2[nH]c(c(Br)c2Br)C(C)(C)c2[nH]c(c(Br)c2Br)C(C)(C)c2[nH]c1c(Br)c2Br [Compound 14, β-Octabromo-meso-octamethylcalix[4]pyrrole]

- Stability Constants, Hydrogen sulfate [2]: <10 M⁻¹
- Stability Constants, Dihydrogen phosphate [3]: 80 (±15)^b M^−1
- Stability Constants, Chloride [7]: 405 (±10) M^−1
- anion binding affinity relative to parent calix[4]pyrrole [8]: not observed
Compound: CCCCNC(=O)Cc1cc2[nH]c1C(C)(C)c1ccc([nH]1)C(C)(C)c1ccc([nH]1)C(C)(C)c1ccc([nH]1)C2(C)C [Compound 28, Mono-β-butylamidocalix[4]pyrrole]

- Stability Constants, Hydrogen sulfate [2]: <10 M⁻¹
- Stability Constants, Dihydrogen phosphate [3]: 62 (±6) M^−1
- Stability Constants, Chloride [7]: 415(±45) M^−1
- anion binding affinity relative to parent calix[4]pyrrole [8]: marked increase
Compound: CCCCNC(=O)CCCC1(C)c2ccc([nH]2)C2(CCCCC2)c2ccc([nH]2)C2(CCCCC2)c2ccc([nH]2)C2(CCCCC2)c2ccc1[nH]2 (stereo not drawn) [Compound 29, Mono-meso-butylamidocalix[4]pyrrole]

- stability under acidic conditions [9]: very stable
- Stability Constant, Chloride [10]: 10700 M⁻¹
- Stability Constant, Pyrophosphate [11]: 12300 M⁻¹
Compound: CC1(C)c2[nH]c(c(F)c2F)C(C)(C)c2[nH]c(c(F)c2F)C(C)(C)c2[nH]c(c(F)c2F)C(C)(C)c2[nH]c1c(F)c2F [Compound 44, Meso-Octamethyl-β-octafluorocalix[4]pyrrole]

- stability under acidic conditions [9]: very stable
- stability under conditions of acid catalysis at higher temperature [9]: nearly complete conversion to 44
- stability under conditions of acid catalysis identical to those of preparation [9]: remained completely intact
- Stability Constant, Chloride [10]: 41 000 M^−1
- Stability Constant, DMSO [10]: 29 (±3) M^−1
- Stability Constant, Pyrophosphate [11]: 25 000 M^−1
Compound: CC1(C)c2[nH]c(c(F)c2F)C(C)(C)c2[nH]c(c(F)c2F)C(C)(C)c2[nH]c(c(F)c2F)C(C)(C)c2[nH]c(c(F)c2F)C(C)(C)c2[nH]c1c(F)c2F [Compound 46, β-Decafluoro-meso-decamethylcalix[5]pyrrole]

- stability under acidic conditions [9]: very stable
- stability under conditions of acid catalysis at higher temperature [9]: nearly complete conversion to 44
- stability under conditions of acid catalysis identical to those of preparation [9]: remained completely intact
- Stability Constant, Chloride [10]: 3 600 M^−1
- Stability Constant, Pyrophosphate [11]: 28 000 M^−1
Compound: CC1(C)c2[nH]c(c(F)c2F)C(C)(C)c2[nH]c(c(F)c2F)C(C)(C)c2[nH]c(c(F)c2F)C(C)(C)c2[nH]c(c(F)c2F)C(C)(C)c2[nH]c(c(F)c2F)C(C)(C)c2[nH]c(c(F)c2F)C(C)(C)c2[nH]c(c(F)c2F)C(C)(C)c2[nH]c1c(F)c2F [Compound 48, β-hexadecafluoro-meso-hexadecamethylcalix[8]pyrrole]
